Results on seven substances are retold here after publication PMC8400200, “Selective Moonlighting Cell-Penetrating Peptides” (Pharmaceutics, 2021).

Series [1] relates to S. cerevisiae MATa and MATα cells. The experiment in a line: Internalization in yeast cells exposed separately, imaging flow cytometry. In kind it is cell-based, Saccharomyces cerevisiae. The settings on record: for penetrating efficiency in MATa cells compared among the targeted CPPs: MATa exposed separately or mixed with MATα cells. How it is done:
We adapted a previous protocol reported to analyze fluorescent single yeast cells. Briefly, cells were grown overnight and diluted to a final optical density measured at 600 nm of 1.0. A total of 116 μL of this cell dilution was mixed with 4 μL of a solution of penetrating peptide at 200 mM in a 1.5 mL plastic tube. This mixture was analyzed every 5 min for 60 min in a flux cytometer coupled to a multiphotonic microscope (Amnis ImageStream Mark II). In that equipment, 10,000 pictures were taken to record green (excitation 488 nm and emission 509 nm) and red (excitation 561 nm and emission 669 nm) fluorescence and the bright field. These images were then analyzed with the IDEAS software that is part of the Amnis equipment, to identify peptide internalization (red fluorescence). Two types of experiments were conducted; in one set, we exposed MATa and MATα cells separately to peptides α-NLS-C, NLS-α-CE and chimera (see Table 1 for a description of the peptide sequences). In another set of experiments, we exposed MATa and MATα cells mixed together to different penetrating peptides labeled with TAMRA; for this last experiment, the ribosomal protein RPL9A was fused to GFP in MATa cells, to facilitate their distinction from MATα cells. Events recorded in this way were further analyzed to discard cell debris and images that included clumps of cells. Images with a total area of 20–50 μm and an aspect ratio of 0.7 allowed us to identify events that include 1 or 2 cells; furthermore, images with less than 1500 arbitrary units of fluorescence were discarded. The data were plotted using ggplot2 from the R package. Please note that the reported experimental conditions were selected among several trials on the AMNIs equipment to identify the best conditions for these experiments.
For orientation: Flow cytometry measures light scatter and fluorescence of single cells or particles in a stream.

Series [2] shares this test system. The experiment in a line: Internalization in yeast cells followed by confocal microscopy. In kind it is cell-based, Saccharomyces cerevisiae. Conditions: 50 μM peptide, OD600 0.4, cells in 0.5% agarose, pictures every 3 min for 1 h, two sets of experiments. As to the method:
To confirm that the fluorescence detected using the AMNIS multiphotonic microscope was the fluorescence inside cells, we carried out confocal microscopy experiments (Zeiss LSM510 META) by adapting a previous report. For that end, yeast cells for each yeast haplotype were grown overnight for 14 h in YPD (1% yeast extract (USB Corp., Cleveland, OH, USA), 2% bacto peptone (Becton, Dickinson and Company, Franklin Lakes, NJ, USA) and 2% glucose (Merck, Naucalpan de Juárez Edo. De Mexico, Mexico). Cells were then centrifuged and resuspended in YPD. An OD600 of 0.4 was used for the confocal microscopy experiments, whereas for the cytometry experiments (above) a value of 1.0 was chosen. Yeast cells were immobilized using low melting point agarose (Agarose SFR VWR Life Technologies, Radnor PA, USA) at 0.5%. The peptide concentration used for these experiments was 50 μM. Prior to performing any observations, 3 cycles of sonications (sonicator Bransonic 32) for 3 min each were performed to dissolve potential peptide aggregates. A total of 12.5 μL of yeast inoculum, 1.5 μL of TAMRA-α-NLS-C solution and 1 μL of previously heated agarose were placed on a microscope slide. […] Images were analyzed using Fiji software and the fluorescence intensity recorded for each cell was divided by the area of the corresponding cell.

In series [3] the test system is HEK293T, HEK293T-NEP and HeLa cells. The series can be described thus: Internalization assay, epifluorescence microscopy, compared or averaged over the three cell lines. The series is classed as cell-based. Conditions: for internalization compared between peptides: medians of box plots (Figure 6A, 6B); for internalization compared between cell lines: medians of box plots (Figure 6A). How it is done:
(§1) This procedure was adapted from a previously reported protocol. Cells were incubated with TatNep, TatNepNoCPP or D-TatNepNoCPP peptides at a concentration of 10, 5 and 1 μM (see Table 1). All peptides were dissolved in a 1:4 DMSO-Water solution. Cells were incubated with each peptide for 30 min, then washed with PBS three times and fixed with 4% paraformaldehyde (Merck, Naucalpan de Juárez Edo. de Mexico, Mexico) for 30 min at room temperature. Afterwards, samples were washed with PBS three times and then incubated with 1 μg/mL of DAPI for 2 min at room temperature. For the images, 1000 cells were taken (3 replicates) by using the epifluorescent microscopy (Nikon ECLIPSE Ti-U). Due to a slight precipitation of the peptides, to avoid interference with the quantification, the 10% with the highest fluorescence intensity were considered outliers and were removed for all conditions. A total of 2700 cells remained for further analysis. Internalization analysis was performed by confocal microscopy. Cells were incubated with any of the three peptides at a concentration of 5 μM for 30 min (the fluorescence was strong and the precipitation reduced), then cell membranes were stained with the CellMask^TM Green Plasma Membrane Stain (ThermoFisher, Waltham, MA, USA) following specifications of the provider. Images were acquired with a Zeiss LSM800 microscope using the ZEN 2.6 (blue edition) software. All images were analyzed with the Fiji/ImageJ Software and are available at http://bis.ifc.unam.mx/ironbios/selmoonCPP/ (accessed on 21 July 2021).
For the mammalian cells images obtained from epifluorescence microscopy, a normality Shapiro–Wilk test was done for each individual condition (27 conditions).

Series [4] has the same test system. The series can be described thus: Internalization analysis by confocal microscopy in mammalian cells. In kind it is cell-based. The settings on record: 5 μM, 30 min, CellMask Green membrane stain. As to the method:
as §1

For series [5], the system named is MATa cells. Conditions: cited from earlier work. From the text: In the targeted strategy, we noticed differences in penetrating efficiencies among the three targeted CPPs. […] This is observed when MATa are exposed to these peptides separately or mixed with MATα cells. […] However, if NLS-α-CE and chimera peptides would be disrupting the membrane potential of MATa cells as part of their toxic ...

Series [6] relates to HEK293T-NEP cells. The experiment in a line: Internalization assay, epifluorescence microscopy. In kind it is cell-based. The settings on record: 10 μM, 30 min, fixed cells, 2700 cells (3 replicates). As to the method:
HEK293T cells were transfected as previously described with the plasmid PCSC-SP-PW-Nep (Addgene, Watertown, MA, USA), which contains the human neprilysin (MME) gene. This transfection was done with the use of the reagent polyethylenimine (PEI) according to the stable transfection procedures for adherent cells. The transfected HEK293T cells were cultured with DMEM containing 10% FBS and Zeocin 400 µg/mL (ThermoFisher, Waltham, MA, USA) to select stably transfected cells, which were recovered after the third day of transfection. […]
This procedure was adapted from a previously reported protocol. […] Due to a slight precipitation of the peptides, to avoid interference with the quantification, the 10% with the highest fluorescence intensity were considered outliers and were removed for all conditions. […] Cells were incubated with any of the three peptides at a concentration of 5 μM for 30 min (the fluorescence was strong and the precipitation reduced), then cell membranes were stained with the CellMask^TM Green Plasma Membrane Stain (ThermoFisher, Waltham, MA, USA) following specifications of the provider. […] All images were analyzed with the Fiji/ImageJ Software and are available at http://bis.ifc.unam.mx/ironbios/selmoonCPP/ (accessed on 21 July 2021). […]

Series [7] relates to HEK293T cells. The experiment in a line: Internalization assay, epifluorescence microscopy. The series is classed as cell-based. The settings on record: 10 μM, 30 min, fixed cells, 2700 cells (3 replicates). How it is done: as §1, with “Internalization analysis was performed by confocal microscopy.” left out, “Images were acquired with a Zeiss LSM800 microscope using the ZEN 2.6 (blue edition) software.” left out, “2021). […]” for “2021).”

Series [8] has as its system yeast or mammalian cells. The settings on record: cited from earlier work. The source says:
Additionally, three other peptides were designed to test the activation strategy (see Table 1). […] For this strategy we chose the peptidase neprilysin (also known as CD10), known to be overexpressed in some types of cancer tissues. The cleavage site sequence recognized by this protease has been well characte ...

The mark [9] stands for this setting: epifluorescence, 10, 5 and 1 μM, 30 min.

“Also recorded” adds a separate entry of the source.

Turning to RLWHWLQLKPGQPMYWRQPKSKRKVRR [α-NLS-C], the “selectivity of internalization (fluorescence intensity inside cells), MATa vs MATα” value in series [1] (living cells exposed separately, OD600 1.0, TAMRA-labelled peptide (4 μL of 200 mM solution in 120 μL), read every 5 min for 60 min, Amnis ImageStream, 10,000 cells per condition, repeated at least 3 times) was “more selectivity towards MATα cells than NLS-α-CE and chimera peptides”. Further, in series [2], the “TAMRA fluorescence inside cells, MATa vs MATα” value is “cells expressing the α-pheromone receptor STE2 (MATa cells) internalized more fluorescence than cells that did not express the receptor”.
As to “D-(YGRKKRRQRRRFFGFLADDDDEE) [D-TatNepNoCPP, all-D isomer of TatNepNoCPP, negative control, N-terminal TAMRA]”, in series [3] (setting [9]), the “concentration dependence of internalization” value is given as “does not present a concentration dependent internalization” and the “internalization compared between peptides” value is “less internalized in all cell lines; also recorded: TatNepNoCPP > TatNep > D-TatNepNoCPP”. Also, in series [4], the “internalization by orthogonal projection” value was “less internalization compared with the other two peptides in all three cell lines” and the pattern of fluorescence entry is reported as “diffused layer covering the cells”.
With “KRRWRFVWMNPKKKRKVPPWPYLLWWHWLQLKPGQPMY [Chimera]”, in series [1], the “penetrating efficiency in MATa cells compared among the targeted CPPs” value is reported as “penetrate less efficiently MATa cells expressing the targeted surface protein (Ste2p) than the α-NLS-C peptide”. In series [5], the “toxicity to MATa cells” value was “toxic to MATa cells”.
For the substance YGRKKRRQRRRFFGFLADDDDEE [TatNepNoCPP], the “ratio between medians of normalized fluorescence intensity, column peptide against row peptide TatNep” value in series [6] is on record as 2.4. Moreover, the “internalization, times higher than TatNep” value in series [3] (average of the ratios of medians per cell line, 10 μM) is listed as 3 times. For the same substance, in series [3] (setting [9]), the “internalization compared between cell lines” value is “HeLa > HEK293T > HEK293T-NEP” and the “internalization compared between peptides” value was “best internalization with respect to the other peptides for any cell line; also recorded: TatNepNoCPP > TatNep > D-TatNepNoCPP”. For the same substance, in series [4], the pattern of fluorescence result was “diffused layer covering the cells”.
Turning to “YGRKKRRQRRRFFG [TatNep, peptide produced by digestion of TatNepNoCPP by neprilysin, positive control for internalization, N-terminal TAMRA]”, in series [7], the “ratio between medians of normalized fluorescence intensity, column peptide against row peptide D-TatNepNoCPP” value came to 2.8 and the “ratio between medians of normalized fluorescence intensity, column peptide against row peptide TatNepNoCPP” value is listed as 2.4. For the same substance, in series [3] (setting [9]), the “internalization compared between cell lines” value was “internalized in HEK293T and the over-expressing HEK293T-NEP cells with the same efficiency; also recorded: HeLa cells internalized more of this peptide at 10 μM than the other cell lines”; the “internalization compared between peptides” value was “TatNepNoCPP > TatNep > D-TatNepNoCPP”. In addition, in series [4], the pattern of fluorescence entry is “punctuated fluorescence”.
As for “FRKWRRKPKKKRKVWWRKVKRRWHWLQLKPGQPMY [NLS-α-CE]”, in series [1], the “penetrating efficiency in MATa cells compared among the targeted CPPs” value is recorded as “penetrate less efficiently MATa cells expressing the targeted surface protein (Ste2p) than the α-NLS-C peptide”. In addition, the “toxicity to MATa cells” value in series [5] is on record as “toxic to MATa cells”.
For the substance “5(6)-carboxytetramethyl rhodamine [TAMRA]”, the “internalization of the free fluorophore” value in series [8] was “do not internalize”.
